Measured values: patent US20110301153A1, “METHODS OF TREATING CANCER” (The Trustees of the University of Pennsylvania, priority 2008, published 2011)

Key:
Format in all cases: cell-based, human
[1] = tested on: SF188 cells stably expressing Bcl-xL; test: Akt/PI3K inhibitor treatment, media metabolite analysis (glucose, lactate, glutamine, ammonia); conditions: 8 hours, medium analysed
Method: SF188 cells stably expressing Bcl-xL were treated with AktiVIII at doses ranging from 0-20 μM. Medium was collected and analyzed for glucose, lactate, glutamine, and ammonia. The rates shown were calculated from the difference in metabolite concentration between the medium at the time point shown and fresh medium. The data points presented are the mean±SD of triplicate samples.
SF188 cells stably expressing Bcl-xL were plated at a density of 4×10^5 cells in E-well plate format, and incubated in DMEM with 10% FCS for 36 hours prior to treatment with AKT inhibitor VIII (Calbiochem) at 0, 0.1, 2, 5, and 10 μM concentrations in triplicate. After 8 hours, medium samples were collected for metabolite analysis, and viable cells were counted using trypan blue exclusion.
Media glucose, glutamine, lactate, and ammonia concentrations were analyzed using the Nova Biomedical Flex Analyzer (Waltham, Mass.).

[2] = tested on: SF188 cells; test: AOA dose-finding, viability of SF188 cells; conditions: doses 500 nM-500 μM, viability 24 h post-treatment
Method: SF188 cells (UC Brain Tumor Research Center, SF, CA) and SV40-immortalized MEF stably transfected with MycER (a gift from Drs. A T Tikhonenko and R. A. Amaravadi of University of Pennsylvania, Philadelphia, Pa.) were cultured in DMEM (Invitrogen), 10% FBS (Gemini Biosystems), 100 units/ml Penicillin, 100 ug/ml Streptomycin, 25 mM glucose, and 6 mM L-glutamine at 37° C. in a 5% CO2 incubator. To avoid depleting […], all experiments were carried out under subconfluent conditions. For glutamine starvation experiments, DMEM without glutamine (Invitrogen) was supplemented with 10% dialyzed FBS (Gemini Biosystems). For metabolic tracing experiments, DMEM without glutamine and with 10% dialyzed FBS was supplemented with either L-glutamine that was unenriched or with L-[U-^13C5]glutamine (Isotec), [U-^14C5]glutamine (GE Amersham), and [γ-^15N]glutamine (Cambridge Isotope Laboratories). DMEM without glucose (Sigma) was supplemented with [U-^14C6]glucose (Sigma). To activate MycER, cells were incubated with 200 nM 4-hydroxytamoxifen for 24 hours.
SF188 cells were treated with AOA (Sigma) at doses ranging from 500 nM-500 μM and viability was assessed 24 h post-treatment. Moreadith R W & Lehninger A L (1984) J. Biol. Chem. 259(10):6215-6221. […] After allowing to plate overnight, cells were treated with 500 μM for 24 h, and then viability was assessed using trypan blue dye exclusion.

[3] = tested on: shCTRL SF188 cells; test: AOA treatment of SF188 cells transduced with control shRNA, viability by trypan blue dye exclusion; conditions: P<0.01
Method: (§1) (A) Myc-suppressed SF188 cells are resistant to glutamine starvation. shMYC and shCTRL SF188 cells, described in FIG. 3B, were allowed to plate in the presence of glutamine and then cultured in the absence of glutamine. Cell viability was determined at the time points shown by trypan blue dye exclusion. The data points shown represent the mean±SD of triplicate samples. (B) Myc-suppressed SF188 cells are resistant to an inhibitor of glutaminolysis. shMYC and shCTRL SF188 cells, described in FIG. 3B, were allowed to plate in the presence of glutamine and then were treated with 500 μM aminooxyacetate (AOA). Cell viability was determined at the time points shown by trypan blue dye exclusion. AOA-treated shCTRL cells were also treated with 7 mM dimethyl α-ketoglutarate (AOA+α-ketoglutarate). The data points shown represent the mean±SD of triplicate samples.
(§2) Lentivirus was packaged in 293T cells co-transfected with pLKO.1-puro c-Myc or Luciferase-control shRNA plasmid (Sigma) in addition to the pVSV-G and pCMVdelta8.2 helper plasmids using lipofectamine 2000 (Sigma). […]
(§3) SF188 cells were treated with AOA (Sigma) at doses ranging from 500 nM-500 μM and viability was assessed 24 h post-treatment. […] After allowing to plate overnight, cells were treated with 500 μM for 24 h, and then viability was assessed using trypan blue dye exclusion.

[4] = tested on: shMYC SF188 cells; test: AOA treatment of SF188 cells transduced with MYC-shRNA, viability by trypan blue dye exclusion; conditions: 500 μM AOA, 24 h, P<0.01
Method: as §1, §2, §3

[5] = tested on: SF188 cells; test: Glutamine starvation of SF188 cells with alpha-ketoglutarate replacement, viability by trypan blue dye exclusion; conditions: glutamine replaced with 7 mM dimethyl α-ketoglutarate, 25 mM glucose in medium
Method: FIG. 1 concerns glutamine catabolism in the human glioma line SF188. (A) Protein synthesis is a minor fate of glutamine carbon. SF188 cells were cultured in medium supplemented with 0.01% [^14C-U5]glutamine relative to unenriched glutamine for 4 h. [^14C-U5]glutamine in SSA precipitated protein (striped bar) and total glutamine consumed from the medium (grey bar) are presented as the mean±standard deviation (SD) of four independent experiments. (B) The requirement for glutamine can be satisfied by alpha-ketoglutarate. SF188 cells were allowed to plate in complete medium and then cultured in either glutamine-depleted medium (−glutamine), complete medium (+glutamine), or glutamine-depleted medium supplemented with 7 mM dimethyl α-ketoglutarate (−glutamine +α-ketoglutarate). Cell viability was determined at the time points shown by trypan blue dye exclusion. The data presented are the mean±SD of triplicate samples. Representative data from one of three independent experiments are shown.
SF188 cells (UC Brain Tumor Research Center, SF, CA) and SV40-immortalized MEF stably transfected with MycER (a gift from Drs. A T Tikhonenko and R. A. Amaravadi of University of Pennsylvania, Philadelphia, Pa.) were cultured in DMEM (Invitrogen), 10% FBS (Gemini Biosystems), 100 units/ml Penicillin, 100 ug/ml Streptomycin, 25 mM glucose, and 6 mM L-glutamine at 37° C. in a 5% CO2 incubator. […]

SMILES: O=c1[nH]c2ccccc2n1C1CCN(Cc2ccc(-c3nc4cc5[nH]cnc5cc4nc3-c3ccccc3)cc2)CC1 [AKT inhibitor VIII]
- ammonia production [1]: neither glutamine metabolism nor ammonia production was inhibited
- glucose metabolism (consumption) [1]: suppressed glucose metabolism and lactate production in a dose-dependent fashion
- glutamine metabolism (consumption) [1]: neither glutamine metabolism nor ammonia production was inhibited
- lactate production [1]: suppressed glucose metabolism and lactate production in a dose-dependent fashion

SMILES: NOCC(=O)O [AOA, aminooxyacetate]
- lowest dose that killed a significant fraction of the cells [2]: 500 µM
- cell viability / death of cells transduced with control shRNA ([3]; 500 μM AOA, 24 h, trypan blue dye exclusion): selectively induced the death
- cell viability of cells transduced with MYC-shRNA [4]: without affecting the viability

SMILES: COC(=O)CCC(=O)C(=O)OC [dimethyl α-ketoglutarate]
- reversal of AOA-induced toxicity (death) ([3]; 7 mM dimethyl α-ketoglutarate added to AOA-treated SF188 parental and control transduced cells): completely suppressed the death
- cell death in glutamine-deficient medium [5]: suppressed the cell death
